Reference: PMC10383271

Experiments:
COX-2 = molecular target: T1, COX-2 (Homo sapiens, UniProt P35354); experiment: COX-2 inhibition, Cayman's COX Colorimetric Inhibitor Screening Assay Kit; settings: for Selectivity Index (SI): COX-2 IC50/COX-1 IC50
T1 sequence (P35354 18-604): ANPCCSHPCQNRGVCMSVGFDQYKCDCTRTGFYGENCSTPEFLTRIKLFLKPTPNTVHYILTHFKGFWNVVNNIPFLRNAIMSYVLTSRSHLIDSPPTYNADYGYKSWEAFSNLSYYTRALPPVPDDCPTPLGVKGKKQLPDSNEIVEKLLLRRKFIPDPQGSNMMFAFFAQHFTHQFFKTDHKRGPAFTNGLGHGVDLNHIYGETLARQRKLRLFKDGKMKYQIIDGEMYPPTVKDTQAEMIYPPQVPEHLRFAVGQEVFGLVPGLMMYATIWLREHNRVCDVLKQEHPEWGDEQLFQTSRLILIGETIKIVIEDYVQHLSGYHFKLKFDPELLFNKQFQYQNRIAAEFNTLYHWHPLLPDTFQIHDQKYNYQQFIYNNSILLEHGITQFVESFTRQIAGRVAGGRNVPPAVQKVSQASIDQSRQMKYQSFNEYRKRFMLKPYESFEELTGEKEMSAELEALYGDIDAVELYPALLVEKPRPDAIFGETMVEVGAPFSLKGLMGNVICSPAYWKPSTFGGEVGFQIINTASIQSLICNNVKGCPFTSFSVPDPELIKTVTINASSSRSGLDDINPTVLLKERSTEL

[1] = system: normal human dermal fibroblasts (NHDF); experiment: MTT assay, viability of NHDF cell culture (ISO 10993 part 5); type: cell-based; settings: NHDF cell cultures, 24 h incubation; for IC50: Homo sapiens, MTT, mean (± SD), n = 5
Procedure: The viability of the normal human dermal fibroblasts (NHDF) cell culture after 24 h incubation with the tested compounds 5a-c-7a-c was assessed by carrying out the MTT assay. This test was performed according to ISO 10993 part 5, Appendix C. For all tested compounds, the IC50 values were calculated using four-parameter logistics. Normal human dermal fibroblasts (NHDF) were purchased from the American Type Culture Collection (ATCC) for cytotoxicity evaluation of the tested compounds. The cells were grown in Dulbecco's Modified Eagle Medium DMEM with […] glucose without phenol red supplemented with 10% FBS and 2 mM L-glutamine, and 25 μg/mL gentamicin. The NHDF cells were cultured under standard conditions (5% CO2, 37 °C, and 95% humidity) with evaluation morphology and confluence at least twice a week. For the assay, the cells were used only in a logarithmic growth phase, and the TrypLE solution was used for 2 min at 37 °C to detach cells. Then, the TrypLE solution was inactivated by adding a culture medium, and the suspension of cells was collected into a tube and centrifuged for 5 min at 1000 rpm. Then, the supernatant was removed, fresh medium was added, and the pellet was resuspended and calculated using the […] chamber. The suspension of cells was prepared to allow seeding 10,000 cells/well density and incubated for 24 h to regenerate in CO2-incubator. The tested compounds were dissolved in DMSO to a final concentration of 10 mM and stored at -20 °C. Before use, the compound solution was kept at room temperature until thawing, and then, samples with 3 different concentrations of compounds were prepared (100 μM, 50 μM, and 10 μM) for each compound. The tested concentrations of compounds were prepared in a culture medium. […] The evaluation of the cytotoxicity of the newly synthesized compounds was carried out in accordance with the ISO 10,993 part V standard by performing the MTT test. After seeding at a density of 10,000 cells per well and adhering overnight, the NHDF cells were treated with the test compounds for 24 h in a CO2 incubator. The supernatant was then removed, the cells were washed with PBS, a 1mg/mL solution of MTT dissolved in MEM was added, and the cultures were re-incubated for 2 h in a CO2 incubator. The medium was then removed, and for a further 30 min, the formazan crystals were dissolved in 100 μL of isopropanol. The absorbance was measured with a Varioskan Go microplate reader at a wavelength of 570 nm. […] For enzyme assays, the IC50 was calculated according to the procedure provided by the kit manufacturer. The significance was set at p < 0.05. Based on the tests performed, the test power was calculated to be greater than 80%.

COX-1 = molecular target: T2, COX-1 (Ovis aries, UniProt P05979); experiment: COX-1 inhibition, Cayman's COX Colorimetric Inhibitor Screening Assay Kit
T2 sequence (P05979 25-600): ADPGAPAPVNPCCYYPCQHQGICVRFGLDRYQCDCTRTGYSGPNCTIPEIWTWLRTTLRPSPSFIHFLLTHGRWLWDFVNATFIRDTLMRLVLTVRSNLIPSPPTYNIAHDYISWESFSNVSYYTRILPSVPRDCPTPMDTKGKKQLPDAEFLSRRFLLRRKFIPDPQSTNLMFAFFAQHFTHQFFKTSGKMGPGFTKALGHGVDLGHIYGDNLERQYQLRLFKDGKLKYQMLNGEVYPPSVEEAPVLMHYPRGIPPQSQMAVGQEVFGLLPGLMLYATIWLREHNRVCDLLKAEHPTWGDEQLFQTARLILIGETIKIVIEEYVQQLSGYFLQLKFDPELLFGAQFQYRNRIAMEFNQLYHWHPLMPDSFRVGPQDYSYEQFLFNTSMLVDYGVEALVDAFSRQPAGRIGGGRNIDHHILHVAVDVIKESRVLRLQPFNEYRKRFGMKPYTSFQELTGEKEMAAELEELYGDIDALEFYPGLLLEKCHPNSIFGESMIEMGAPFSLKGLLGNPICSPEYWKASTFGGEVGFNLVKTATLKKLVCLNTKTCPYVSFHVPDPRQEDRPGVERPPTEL

15-LOX = molecular target: T3, 15-LOX (Glycine max, UniProt P08170); experiment: 15-LOX inhibition, Cayman's Lipoxygenase Inhibitor Screening Assay Kit
T3 sequence (P08170 1-839): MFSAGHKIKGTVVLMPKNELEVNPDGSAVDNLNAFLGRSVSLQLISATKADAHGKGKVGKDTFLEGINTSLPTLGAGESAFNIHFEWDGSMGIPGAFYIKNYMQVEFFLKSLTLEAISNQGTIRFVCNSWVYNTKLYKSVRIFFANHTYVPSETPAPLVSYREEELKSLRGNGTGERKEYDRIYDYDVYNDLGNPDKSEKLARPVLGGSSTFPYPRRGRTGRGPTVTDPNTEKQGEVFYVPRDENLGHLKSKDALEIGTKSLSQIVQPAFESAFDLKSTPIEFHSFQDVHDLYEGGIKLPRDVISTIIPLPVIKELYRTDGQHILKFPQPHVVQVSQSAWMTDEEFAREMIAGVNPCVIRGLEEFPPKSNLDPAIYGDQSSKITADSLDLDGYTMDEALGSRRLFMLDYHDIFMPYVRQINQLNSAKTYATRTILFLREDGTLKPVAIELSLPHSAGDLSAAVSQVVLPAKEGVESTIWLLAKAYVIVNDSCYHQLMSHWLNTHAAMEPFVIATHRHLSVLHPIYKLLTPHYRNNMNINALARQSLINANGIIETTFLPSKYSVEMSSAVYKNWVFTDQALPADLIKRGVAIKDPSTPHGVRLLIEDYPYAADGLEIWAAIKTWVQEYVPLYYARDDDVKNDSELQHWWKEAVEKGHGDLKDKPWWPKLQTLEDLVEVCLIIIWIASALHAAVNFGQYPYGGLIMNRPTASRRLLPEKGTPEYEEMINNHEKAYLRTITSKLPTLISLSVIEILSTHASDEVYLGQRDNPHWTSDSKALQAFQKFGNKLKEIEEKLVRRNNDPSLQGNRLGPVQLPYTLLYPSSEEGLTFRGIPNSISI

| SMILES | IC50 (COX-2) [µM] | Selectivity Index (SI) (COX-2) | IC50 [1] [µM] | Cell Morphology in Culture [1] | IC50 (COX-1) [µM] | IC50 (15-LOX) [µM] | melting point [°C] | effect on COX-1 isoform (in words) (COX-1; enzymatic assay) |
| --- | --- | --- | --- | --- | --- | --- | --- | --- |
| CCCCn1c(C)c2c(OCC(=O)N/N=C/c3ccccc3O)nn(C)c(=O)c2c1C [Compound 6a, 2-(6-butyl-3,5,7-trimethyl-4-oxo-pyrrolo[3,4-d]pyridazin-1-yl)oxy-N-[(Z/E)-(2-hydroxyphenyl)methyleneamino]acetamide] | 16.4 ± 1.1 | 0.18 | 88.7 ± 4.1 | Cells with an elongated shape characteristic of fibroblasts, the granularities were observed in 3–5 fields of view from 10 analyzed fields. | 89.2 ± 4.1 | 13.6 ± 0.03 | 225 to 227 |  |
| Cc1c2c(OCC(=O)N/N=C/c3ccccc3O)nn(C)c(=O)c2c(C)n1-c1ccccc1 [Compound 6b, N-[(Z/E)-(2-hydroxyphenyl)methyleneamino]-2-(3,5,7-trimethyl-4-oxo-6-phenyl-pyrrolo[3,4-d]pyridazin-1-yl)oxy-acetamide] | 27.7 ± 2.5 | 0.28 | 80.7 ± 1.9 | Cells with an elongated shape characteristic of fibroblasts, the granularities were observed in 3–5 fields of view from 10 analyzed fields. | 97.7 ± 6.8 | 13.7 ± 0.03 | 214 to 217 |  |
| Cc1c2c(OCC(=O)N/N=C/c3ccccc3O)nn(C)c(=O)c2c(C)n1-c1cccc(Cl)c1 [Compound 6c, 2-[6-(3-chlorophenyl)-3,5,7-trimethyl-4-oxo-pyrrolo[3,4-d]pyridazin-1-yl]oxy-N-[(Z/E)-(2-hydroxyphenyl)methyleneamino]acetamide] | 9.8 ± 3.1 | 0.13 | 211 ± 9.6 | Normal morphology of fibroblasts–elongated cells, single granular cells in 1 of 10 assessed fields of view. | 76.8 ± 6 | 14.7 ± 0.02 | 230 to 232 |  |
| CCCCn1c(C)c2c(OCC(=O)N/N=C/c3ccc(C)cc3)nn(C)c(=O)c2c1C [Compound 7a, 2-(6-butyl-3,5,7-trimethyl-4-oxo-pyrrolo[3,4-d]pyridazin-1-yl)oxy-N-[(Z/E)-p-tolylmethyleneamino]acetamide] | 16.1 ± 1.8 | 0.17 | 116 ± 3.6 | Cells with an elongated shape characteristic of fibroblasts, the granularities were observed in 3–5 fields of view from 10 analyzed fields. | 93.8 ± 4.2 | 15.3 ± 2.1 | 209 to 211 |  |
| Cc1ccc(/C=N/NC(=O)COc2nn(C)c(=O)c3c(C)n(-c4ccccc4)c(C)c23)cc1 [Compound 7b, N-[(Z/E)-p-tolylmethyleneamino]-2-(3,5,7-trimethyl-4-oxo-6-phenyl-pyrrolo[3,4-d]pyridazin-1-yl)oxy-acetamide] | 24.5 ± 2.1 | 0.27 | 181 ± 8.7 | Normal morphology of fibroblasts-elongated cells, single granular cells in 1 of 10 assessed fields of view. | 91.5 ± 5.1 | 13.7 ± 0.07 | 271 to 272 |  |
| Cc1ccc(/C=N/NC(=O)COc2nn(C)c(=O)c3c(C)n(-c4cccc(Cl)c4)c(C)c23)cc1 [Compound 7c, 2-[6-(3-chlorophenyl)-3,5,7-trimethyl-4-oxo-pyrrolo[3,4-d]pyridazin-1-yl]oxy-N-[(Z/E)-p-tolylmethyleneamino]acetamide] | 22.7 ± 2.5 |  | 81.6 ± 5.1 | Cells with an elongated shape characteristic of fibroblasts, the granularities were observed in 3–5 fields of view from 10 analyzed fields. |  | 13.3 ± 0.02 | 248 to 250 | does not affect the COX-1 isoform |
